≈ marks a conversion by molar mass, not a printed value. Where “and” joins values, the source holds several entries; their conditions need not be identical. Equal values may be shown once. Read-outs that look alike come from different tables or passages of the source. Positions of bridges follow the written chain, without caps; N, C: chain ends. Residues, ends and D or L forms follow the SMILES beside them. *: point of attachment. Acm = CC(=O)NC*
What was measured:
Assay type in all cases: cell-based, Candida albicans
C. albicans [1] = details: 10 min exposure, mean ± SD, untreated control 1.8 ± 1.2%
Description: (§1) To analyze changes in cell size and to assess kinetics of cell death of C. albicans upon antifungal treatment flow cytometry was applied. For both experiments, 10^4 cells mL^-1 was incubated in 0.05× PDB with the desired AMP concentration for different time points. The incubation was performed in 1.5 mL reaction tubes at 30°C under continuous shaking at 800 rpm in a Thermomixer Comfort (Eppendorf). After incubation, the cells were centrifuged at 4°C with 3,000 ×g for 3 min. For cell size determination, the supernatant was removed and the cells were resuspended and fixed in PBS containing 3.7% (v/v) formaldehyde before changes in cell size were measured by plotting SSC against FSC. C. albicans that were incubated at 95°C for 120 min served as controls. Microscopic control-images were taken with a fluorescence microscope (Axioplan, Zeiss), equipped with a camera (Axiocam 503 mono, Zeiss) and excitation/emission filters (365/420 nm for blue fluorescence and 546/590 or 565/620 nm for red fluorescence, Zeiss). Image acquisition was performed with ZEN 2 microscope software (Zeiss, blue edition) and the cell area was measured with ImageJ 1.52d software ([Schindelin et al., 2012]).
For dead-cell staining, prior to fixation, the cells were incubated in the dark for 30 min at 4°C with 100 μL PBS containing 0.1 μL LIVE/DEAD^TM Fixable Far Red Dead Cell Stain (Thermo Fisher Scientific). The cells were then washed once in PBS and fixed in PBS containing 3.7% formaldehyde. Ethanol-inactivated dead C. albicans served as a positive staining control. The samples were then analyzed by FACS (FACSVerse Flow Cytometer, BD Biosciences), equipped with BD FACSuite software (v1.0.6.5230, BD Biosciences). Dead cells were detected at Excitation/Emission wavelength of 650/665 nm. Stained, live, and dead Candida cells were used as controls to discriminate populations and to set the gates.
To elucidate the AMPs candidacidal activities at an early stage and to compare their time and dose-dependent cell killing in more detail, fluorescence activated cell sorting (FACS) analysis with dead-cell staining was applied. To this end, C. albicans was exposed to 1× and 2× MIC of the respective AMPs for 10 min, stained with the dead-cell marker, and fixed with formaldehyde. With FACS analyses, 1.8 ± 1.2% dead cells were detected in the untreated control (Figure 3).

C. albicans [2] = assay: Cell size reduction (FSC) by flow cytometry; details: 1× MIC and 2× MIC, 10 and 30 min
Description: as §1
Cell shrinkage of C. albicans is a sign for cell death when exposed to AMPs ([Lee et al., 2017]). We therefore analyzed the changes in size of AMP-treated C. albicans cells by recording the FSC with flow cytometry. To this end, C. albicans cells were analyzed after 10 and 30 min of exposure to 1× MIC and 2× MIC of AMPs (Figure 5). Heat-killed and untreated C. albicans cells served as positive and negative controls, respectively (Supplementary Figure S8). […] Pγ^var and Pγ^opt caused a very prominent decrease in the FSC value compared to the untreated cell population when applied at 2× MIC. Pγ^var and Pγ^opt reduced the average cell size after a 10-min treatment by 28 ± 13 (P = 0.022) and 18 ± 10% (P = 0.041), respectively, and after 30 min the cell size was reduced by 48 ± 8 (P < 0.001) and 37 ± 12% (P = 0.007), respectively.

C. albicans [3] = details: for MIC: 24 h; for antifungal activity of scrambled peptide analog compared with original peptide: compared with Pγ, Pγ^var and Pγ^opt, respectively, data not shown
Description: Fungal strains used in this study are listed in Supplementary Table S1 and composition of growth media is given in Supplementary Table S2. All P. chrysogenum shaking cultures were inoculated with 2 × 10^8 conidia, in 200 mL defined minimal medium (PcMM) for protein expression or complete medium (CM) before transformation, and grown at 25°C as described ([Sonderegger et al., 2016]). For conidial suspension generation from surface cultures, P. chrysogenum was grown on PcMM agar at 25°C. C. albicans was used as PAF-sensitive model organism and was cultivated on yeast extract peptone dextrose (YPD) agar at 37°C. For growth inhibition and susceptibility assays, C. albicans was grown in 20-fold diluted potato dextrose broth (PDB, Sigma-Aldrich) at 30°C, pH 5.5 ([Huber et al., 2018]).
The MIC of all protein and peptide variants was determined on C. albicans with broth microdilution assays in 96-well microtiter plates (Nunclon Delta, Thermo Fisher Scientific). From a fresh C. albicans overnight culture on YPD agar, cells were harvested with an inoculation loop and suspended in 0.05× PDB (Sigma-Aldrich) ([Arendrup et al., 2016]). The cell number was determined with a counting chamber (Bürker) and the cell number was adjusted to 10^4 mL^-1. In each well, 10^3 cells were incubated with increasing concentrations of antifungal proteins or peptides in a final volume of 200 μL 0.05× PDB. The plates were incubated for 24 h at 30°C before the growth was determined by measuring the optical density (OD620nm) with a multi-mode microplate reader (FLUOstar Omega, BMG Labtech). The MIC was defined as the protein concentration that inhibited growth by ≥90% compared to the untreated control, which was referred as 100% growth.

C. albicans biofilms = assay: Anti-biofilm activity, FDA fluorescence; details: AMP 0–40 μM for 24 h at 30°C; for concentration inhibiting cell metabolism in biofilm (FDA fluorescence): 24-h-old biofilms; for concentration with anti-biofilm (inhibitory) activity, extinction of FDA fluorescence: 1 h old (young) biofilms
Description: The antifungal activity against C. albicans biofilms was determined in 96-well microtiter plates (Nunclon Delta, Thermo Fisher Scientific). Cells (10^5) in 100 μL 0.05× PDB were distributed per well and plates were incubated at 37°C for up to 24 h to allow biofilm formation. After cell adherence, the microtiter plates were washed once with 0.05× PDB and the test substances were added in increasing concentrations in 100 μL 0.05× PDB per well. H2O2 served as a control for cell killing. The plates were further incubated at 30°C for 24 h. The wells were washed once with 0.05× PDB and 100 μL of FDA solution (40 μg mL^-1 in 0.05× PDB) was added to the wells. Wells containing only FDA solution (40 μg mL^-1 in 0.05× PDB) were used as blank background control. The plates were incubated for 1 h at 37°C in the dark before the fluorescence signal intensity was measured in a multi-mode microplate reader (FLUOstar Omega, BMG Labtech) with excitation and emission wavelengths of 485 and 520 nm. All experiments were prepared at least in duplicates and repeated at least twice.
Next, we analyzed the potential of the AMPs to inhibit C. albicans biofilm formation. Low susceptibility of biofilms to antifungal agents is often a limiting factor in anti-Candida treatment. To this end, C. albicans cells were distributed in 96-well microtiter plates, allowed to settle down, and to develop biofilms for 1 and 24 h. Then, planktonic cells were washed off and AMPs were added to the biofilms for another 24 h in a concentration range of 0–40 μM. The biofilms were then quantified by adding FDA to the wells. Metabolically active cells convert non-fluorescent FDA into highly fluorescent fluorescein by intracellular enzymatic activity ([Peeters et al., 2008]). The resulting fluorescence signal intensity from AMP-treated biofilms was measured and compared to untreated conditions. […] Twenty-four-hour-old biofilms, however, were resistant against PAF, PAF^var, and PAF^opt in the investigated concentration range (data not shown).

C. albicans [4] = details: 2 h
Description: Fungistatic or fungicidal activities were determined by incubating C. albicans (10^4 cells mL^-1) in 0.05× PDB with proteins and peptides at 1× MIC and 2× MIC of at 30°C under continuous shaking (800 rpm) in a Thermomixer Comfort (Eppendorf). At defined time points, aliquots were taken and appropriate dilutions were plated on YPD agar in duplicates to promote growth of viable cells. Agar plates were incubated at 37°C for 24 h to count colony forming units (cfu) ([Huber et al., 2018]).
The determination of the MIC concentration is a well-established, reliable method to elucidate the growth reducing effect of an antifungal compound. […] To gain deeper insight into the antifungal mechanism of the generated protein and peptide variants, we compared them first for their fungicidal potential. In liquid culture C. albicans was exposed to 1× MIC and 2× MIC concentrations of each protein and peptide. After certain time points aliquots were taken and appropriate dilutions were spread on agar plates to allow colony formation of viable cells. The cfu were counted and compared to the untreated control, which was set to be 100%. […] The candidacidal effects were aggravated with higher protein concentrations.

[5] = 1× MIC, 0.05× PDB, 30°C, mean ± SD

With CC(=O)N[C@@H](CCCCN)C(=O)N[C@@H](Cc1ccc(O)cc1)C(=O)N[C@H](C(=O)NCC(=O)N[C@@H](CCCCN)C(=O)N[C@@H](CS)C(=O)N[C@H](C(=O)N[C@@H](CCCCN)C(=O)N[C@@H](CO)C(=O)N[C@@H](CCCCN)C(=O)N[C@@H](CC(N)=O)C(=O)N[C@@H](CCC(=O)O)C(=O)N[C@@H](CS)C(=O)N[C@@H](CCCCN)C(N)=O)[C@@H](C)O)[C@@H](C)O [Pγ] (Ac-KYTGKCTKSKNECK-NH2) as the molecule, how does the “dead cells (cells killed), FACS dead-cell staining” value (C. albicans [1]; 1× MIC) read?
The value was “No significant cell-killing”.

And the “dead cells (cells killed), FACS dead-cell staining” value (C. albicans [1]; 2× MIC)?
Its value is “No significant cell-killing”.

What about the cell shrinkage (C. albicans [2]) of the same molecule?
Its cell shrinkage is “did not result in cell shrinkage”.

And the MIC (C. albicans [3])?
Its MIC is 10.0 µM (≈ 16.6 µg/mL).

What about the “concentration inhibiting cell metabolism in biofilm (FDA fluorescence)” value (C. albicans biofilms) of the same molecule?
The value was “no impact”.

What about the “concentration with anti-biofilm (inhibitory) activity, extinction of FDA fluorescence” value (C. albicans biofilms) of the same molecule?
The value was 40 µM.

What about the “Candida cells killed (cfu vs untreated control)” value (C. albicans [4]; [5]) of the same molecule?
Its value is “no killing effects”.

And the “Candida cells killed (cfu vs untreated control)” value (C. albicans [4]; 2)?
Its value is 31 ± 23%.

For CC(=O)N[C@@H](CCCCN)C(=O)N[C@@H](Cc1ccc(O)cc1)C(=O)N[C@H](C(=O)NCC(=O)N[C@@H](CCCCN)C(=O)N[C@H]1CSSC[C@@H](C(=O)N[C@@H](CCCCN)C(N)=O)NC(=O)[C@H](CCC(=O)O)NC(=O)[C@H](CC(N)=O)NC(=O)[C@H](CCCCN)NC(=O)[C@H](CO)NC(=O)[C@H](CCCCN)NC(=O)[C@H]([C@@H](C)O)NC1=O)[C@@H](C)O [Pγ_ox] (Ac-KYTGKCTKSKNECK-NH2; disulfide 6-13), which MIC (C. albicans [3]) is on record?
The MIC was 40 µM (≈ 66.3 µg/mL).

Which MIC (C. albicans [3]) does the source give for CC(=O)NCSC[C@H](NC(=O)[C@H](CCC(=O)O)NC(=O)[C@H](CC(N)=O)NC(=O)[C@H](CCCCN)NC(=O)[C@H](CO)NC(=O)[C@H](CCCCN)NC(=O)[C@@H](NC(=O)[C@H](CSCNC(C)=O)NC(=O)[C@H](CCCCN)NC(=O)CNC(=O)[C@@H](NC(=O)[C@H](Cc1ccc(O)cc1)NC(=O)[C@H](CCCCN)NC(C)=O)[C@@H](C)O)[C@@H](C)O)C(=O)N[C@@H](CCCCN)C(N)=O [Pγ_prot] (Ac-KYTGKC(Acm)TKSKNEC(Acm)K-NH2) here?
The MIC was 40 µM (≈ 72 µg/mL).

Which “antifungal activity of scrambled peptide analog compared with original peptide” value (C. albicans [3]) does the source give for “CTNKYSCKKGETKK [Pγ_scr, scrambled peptide analog of Pγ]” here?
Its value is “same antifungal activity”.

What does the source list for “Penicillium chrysogenum antifungal protein [PAF]”?
dead cells (cells killed), FACS dead-cell staining (C. albicans [1]; 1× MIC): did not cause significant increase; dead cells (cells killed), FACS dead-cell staining (C. albicans [1]; 2× MIC): did not cause significant increase; cell shrinkage (C. albicans [2]): did not result in cell shrinkage; MIC (C. albicans [3]; 10^3 cells per well in 200 μL 0.05× PDB, 30°C, OD620nm, MIC = concentration inhibiting growth by ≥90% vs untreated control): 5 µM and 5.0 µM; concentration inhibiting cell metabolism in biofilm (FDA fluorescence) (C. albicans biofilms): resistant; concentration with anti-biofilm (inhibitory) activity, extinction of FDA fluorescence (C. albicans biofilms): only moderately reduced the metabolic activity; Candida cells killed (cfu vs untreated control) (C. albicans [4]; [5]): no detectable killing activity; Candida cells killed (cfu vs untreated control) (C. albicans [4]; 2× MIC, 0.05× PDB, 30°C, mean ± SD): 26 ± 6%

Which “antifungal activity of scrambled peptide analog compared with original peptide” value (C. albicans [3]) does the source give for “TCKKNKKKKYGKTC [Pγ^opt_scr, scrambled peptide analog of Pγ^opt]” here?
The value was “same antifungal activity”.

How did the “antifungal activity of scrambled peptide analog compared with original peptide” value (C. albicans [3]) turn out when “TNGKKYKKKEYCCK [Pγ^var_scr, scrambled peptide analog of Pγ^var]” was run?
Its value is “same antifungal activity”.

From article PMC6062912, “The Evolutionary Conserved γ-Core Motif Influences the Anti-Candida Activity of the Penicillium chrysogenum Antifungal Protein PAF” (Frontiers in Microbiology, 2018)
